Assay results reported in patent publication US20260109694A1, “HETEROCYCLIC COMPOUNDS AND USES THEREOF” (Kumquat Biosciences Inc., priority 2023, published 2026).

How the values were obtained:
PTPN2 = biological target: T1, PTPN2 (Homo sapiens, UniProt P17706); experiment: Phosphatase activity assay (DiFMUP substrate); format: biochemical; conditions: value bin printed in column head
T1 sequence (P17706 1-415): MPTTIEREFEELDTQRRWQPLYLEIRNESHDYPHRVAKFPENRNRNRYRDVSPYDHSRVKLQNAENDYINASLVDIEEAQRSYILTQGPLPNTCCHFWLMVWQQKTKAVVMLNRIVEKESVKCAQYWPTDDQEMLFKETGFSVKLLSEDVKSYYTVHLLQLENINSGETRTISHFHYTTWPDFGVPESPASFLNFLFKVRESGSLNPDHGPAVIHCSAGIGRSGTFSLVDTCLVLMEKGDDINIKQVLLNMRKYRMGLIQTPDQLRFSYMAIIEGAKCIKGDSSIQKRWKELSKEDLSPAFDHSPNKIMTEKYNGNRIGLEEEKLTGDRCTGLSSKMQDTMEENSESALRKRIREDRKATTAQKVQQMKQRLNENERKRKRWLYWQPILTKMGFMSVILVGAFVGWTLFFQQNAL
Method: (§1) The selectivity and potency of a small molecule PTPN2 inhibitor as provided herein against one or more protein tyrosine phosphatase (PTP) enzymes, and specifically against PTPN2, is assessed in various ways. The one or more PTP enzymes comprise Mycobacterium protein tyrosine phosphatase A (mPTPA), Mycobacterium protein tyrosine phosphatase B (mPTPB), PTPN1 (i.e., PTP1B), PTPN2 (i.e., TC-PTP), PTPN22 (i.e., LYP), SHP-1, SHP-2, FAP-1, Meg2, HePTP, Laforin, VHX, VHR, LMWPTP, Cdc14A, LAR, CD45, PTPRG, a fragment thereof, a variant thereof, and a combination thereof. Selectivity and potency of a small molecule PTPN2 inhibitor is evaluated using a PTP activity inhibition assay. The assay is performed using a buffer comprising 50 mM HEPES buffer pH 7.5, 150 mM NaCl, 0.5 mM EDTA, 1 mM DTT, 0.001% Tween-20.
(§2) The assay is performed using a phosphated substrate, e.g., 10 mM 6,8-Difluoro-4-Methylumbelliferyl Phosphate (DIFMUP) that is stored at −20° C. Alternatively or in addition to, the assay is performed using other phosphated substrate (e.g., fluorescein diphosphate). Each PTP enzyme is diluted in the assay buffer
(§3) The assay can be carried out at room temperature in multiplate format, e.g., using 384 well plates. A small molecule PTPN2 inhibitor dissolved in DMSO at one of 10 concentrations from a serial dilution or DMSO alone for control is added to each well. A mixture of the assay buffer comprising PTP enzyme (e.g., 0.025 ng/ul PTPN2) is added to each well and mixed for approximately 2 minutes. The reaction is initiated by adding DiFMUP diluted in the assay buffer to a final concentration of approximately 45 µM DiFMUP in PTPN2 assay. For each PTP enzyme, DiFMUP is added at the Km (Michaelis constant) of the enzyme that had been independently determined. The phosphatase activity of the PTP enzyme is assessed by monitoring appearance of a fluorescent product (6,8-difluoro-7-hydroxyl-4-coumarin (DiFMU) from DiFMUP) continuously for about 15 to 30 minutes, using the INFINITE M1000Pro plate reader (Tecan) with excitation at 360 nm and emission at 450 nm (cutoff filter at 435 nm) for DiFMU. Each assay is performed at least in duplicate. The rate (e.g., the initial rate) of DiFMU formation is plotted against the concentration of the small molecule PTPN2 inhibitor, and the data is fitted (e.g., using a 4-parameter equation) to determine the inflection point of the fit as the IC50 of the small molecule PTPN2 inhibitor for a specific enzyme. Utilizing this assay, the ability of the compounds in Table 1 to inhibit PTPN2 and PTP1B has been assessed. Table 3 summarizes the IC50 values.

PTP1B = biological target: T2, PTP1B (Homo sapiens, UniProt P18031); experiment: Phosphatase activity assay (DiFMUP substrate); format: biochemical; conditions: value bin printed in column head
T2 sequence (P18031 1-435): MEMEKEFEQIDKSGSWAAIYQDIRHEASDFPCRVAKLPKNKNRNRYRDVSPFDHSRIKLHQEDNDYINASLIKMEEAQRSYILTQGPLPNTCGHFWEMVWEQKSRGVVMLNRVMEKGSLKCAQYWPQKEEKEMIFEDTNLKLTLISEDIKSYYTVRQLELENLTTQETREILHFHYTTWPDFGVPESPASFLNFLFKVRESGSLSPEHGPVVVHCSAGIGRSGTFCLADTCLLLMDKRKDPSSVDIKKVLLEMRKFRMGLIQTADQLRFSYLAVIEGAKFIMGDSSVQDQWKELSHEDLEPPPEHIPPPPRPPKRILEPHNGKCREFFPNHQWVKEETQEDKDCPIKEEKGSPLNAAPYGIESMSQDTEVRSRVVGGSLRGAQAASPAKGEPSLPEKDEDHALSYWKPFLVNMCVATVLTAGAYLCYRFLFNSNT
Method: as §1, §2, §3

Row | SMILES | IC50 (PTPN2) [nM] | IC50 (PTP1B) [nM]
1 | CC(C)C(=O)O[C@@H](C)OC(=O)N1CC(c2ccc(O)c(N3CC(=O)NS3(=O)=O)c2F)=C[C@H]1CCC1CC1 [Compound 143, (R)-1-(isobutyryloxy)ethyl (R)-2-(2-cyclopropylethyl)-4-(3-(1,1-dioxido-4-oxo-1,2,5-thiadiazolidin-2-yl)-2-fluoro-4-hydroxyphenyl)-2,5-dihydro-1H-pyrrole-1-carboxylate] | ≤ 1000 | ≤ 1000
2 | CC(C)[C@H](N)C(=O)NCC(=O)N1CC(c2ccc(O)c(N3CC(=O)NS3(=O)=O)c2F)=C[C@H]1CCC1CCC1 [Compound 144, (S)-2-amino-N-(2-((R)-2-(2-cyclobutylethyl)-4-(3-(1,1-dioxido-4-oxo-1,2,5-thiadiazolidin-2-yl)-2-fluoro-4-hydroxyphenyl)-2,5-dihydro-1H-pyrrol-1-yl)-2-oxoethyl)-3-methylbutanamide] | ≤ 1000 | ≤ 1000
3 | CC(C)CC[C@H]1C=C(c2ccc(O)c(N3CC(=O)NS3(=O)=O)c2F)CN1 [Compound 145, (S)-5-(2-fluoro-6-hydroxy-3-(5-isopentyl-2,5-dihydro-1H-pyrrol-3-yl)phenyl)-1,2,5-thiadiazolidin-3-one 1,1-dioxide] | ≤ 1000 | ≤ 1000
4 | CC(C)CC[C@H]1C=C(c2ccc(O)c(N3CC(=O)NS3(=O)=O)c2F)CN1C(=O)OC(OC(=O)[C@H](N)C(C)C)C(C)C (stereo partly drawn) [Compound 146, 1-((D-valyl)oxy)-2-methylpropyl (2S)-4-(3-(1,1-dioxido-4-oxo-1,2,5-thiadiazolidin-2-yl)-2-fluoro-4-hydroxyphenyl)-2-isopentyl-2,5-dihydro-1H-pyrrole-1-carboxylate] | ≤ 1000 | ≤ 1000
5 | CC(OC(=O)[C@H](N)C(C)C)OC(=O)N1CC(c2ccc(O)c(N3CC(=O)NS3(=O)=O)c2F)=C[C@H]1CCC1CCC1 (stereo partly drawn) [Compound 147, 1-((D-valyl)oxy)ethyl (2R)-2-(2-cyclobutylethyl)-4-(3-(1,1-dioxido-4-oxo-1,2,5-thiadiazolidin-2-yl)-2-fluoro-4-hydroxyphenyl)-2,5-dihydro-1H-pyrrole-1-carboxylate] | ≤ 1000 | ≤ 1000
6 | CC(C)CC[C@H]1C=C(c2ccc(O)c(N3CC(=O)NS3(=O)=O)c2F)CN1C(=O)O[C@H](C)OC(=O)C(C)C [Compound 148, (R)-1-(isobutyryloxy)ethyl (S)-4-(3-(1,1-dioxido-4-oxo-1,2,5-thiadiazolidin-2-yl)-2-fluoro-4-hydroxyphenyl)-2-isopentyl-2,5-dihydro-1H-pyrrole-1-carboxylate] | ≤ 1000 | ≤ 1000
7 | CC(C)[C@@H](N)C(=O)NCC(=O)N1CC(c2ccc(O)c(N3CC(=O)NS3(=O)=O)c2F)=C[C@H]1CCC1CCC1 [Compound 149, (R)-2-amino-N-(2-((R)-2-(2-cyclobutylethyl)-4-(3-(1,1-dioxido-4-oxo-1,2,5-thiadiazolidin-2-yl)-2-fluoro-4-hydroxyphenyl)-2,5-dihydro-1H-pyrrol-1-yl)-2-oxoethyl)-3-methylbutanamide] | ≤ 1000 | ≤ 1000
8 | CC(C)C(=O)OC(OC(=O)N1CC(c2ccc(O)c(N3CC(=O)NS3(=O)=O)c2F)=C[C@H]1CCC1CCC1)C(C)C (stereo partly drawn) [Compound 150, 1-(isobutyryloxy)-2-methylpropyl (2R)-2-(2-cyclobutylethyl)-4-(3-(1,1-dioxido-4-oxo-1,2,5-thiadiazolidin-2-yl)-2-fluoro-4-hydroxyphenyl)-2,5-dihydro-1H-pyrrole-1-carboxylate] | ≤ 1000 | ≤ 1000
9 | CC(C)C(=O)O[C@@H](C)OC(=O)N1CC(c2ccc(O)c(N3CC(=O)NS3(=O)=O)c2F)=C[C@@H]1CCC1CC1 [Compound 151, (R)-1-(isobutyryloxy)ethyl (S)-2-(2-cyclopropylethyl)-4-(3-(1,1-dioxido-4-oxo-1,2,5-thiadiazolidin-2-yl)-2-fluoro-4-hydroxyphenyl)-2,5-dihydro-1H-pyrrole-1-carboxylate] | ≤ 1000 | ≤ 1000
10 | CC(C)CC[C@H]1C=C(c2ccc(O)c(N3CC(=O)NS3(=O)=O)c2F)CN1C(=O)O[C@@H](C)OC(=O)C1CCCC1 [Compound 152, (S)-1-((cyclopentanecarbonyl)oxy)ethyl (S)-4-(3-(1,1-dioxido-4-oxo-1,2,5-thiadiazolidin-2-yl)-2-fluoro-4-hydroxyphenyl)-2-isopentyl-2,5-dihydro-1H-pyrrole-1-carboxylate] | > 1000 | ≤ 1000
11 | CC(C)CC[C@H]1C=C(c2ccc(O)c(N3CC(=O)NS3(=O)=O)c2F)CN1C(=O)OC(C)OC(=O)C1CCCC1 (stereo partly drawn) [Compound 153, 1-((cyclopentanecarbonyl)oxy)ethyl (2S)-4-(3-(1,1-dioxido-4-oxo-1,2,5-thiadiazolidin-2-yl)-2-fluoro-4-hydroxyphenyl)-2-isopentyl-2,5-dihydro-1H-pyrrole-1-carboxylate] | > 1000 | > 1000
12 | CC(C)CC[C@H]1C=C(c2ccc(O)c(N3CC(=O)NS3(=O)=O)c2F)CN1C(=O)O[C@@H](C)OC(=O)C(C)C [Compound 154, (S)-1-(isobutyryloxy)ethyl (S)-4-(3-(1,1-dioxido-4-oxo-1,2,5-thiadiazolidin-2-yl)-2-fluoro-4-hydroxyphenyl)-2-isopentyl-2,5-dihydro-1H-pyrrole-1-carboxylate] | ≤ 1000 | ≤ 1000
13 | CC(C)C(=O)O[C@H](C)OC(=O)N1CC(c2ccc(O)c(N3CC(=O)NS3(=O)=O)c2F)=C[C@@H]1CCC1CC1 [Compound 155, (S)-1-(isobutyryloxy)ethyl (S)-2-(2-cyclopropylethyl)-4-(3-(1,1-dioxido-4-oxo-1,2,5-thiadiazolidin-2-yl)-2-fluoro-4-hydroxyphenyl)-2,5-dihydro-1H-pyrrole-1-carboxylate] | ≤ 1000 | ≤ 1000
14 | CC(OC(=O)C(C)C)OC(=O)N1CC(c2ccc(O)c(N3CC(=O)NS3(=O)=O)c2F)=C[C@H]1CCC1CCC1 (stereo partly drawn) [Compound 156, 1-(isobutyryloxy)ethyl (2R)-2-(2-cyclobutylethyl)-4-(3-(1,1-dioxido-4-oxo-1,2,5-thiadiazolidin-2-yl)-2-fluoro-4-hydroxyphenyl)-2,5-dihydro-1H-pyrrole-1-carboxylate] | ≤ 1000 | ≤ 1000
15 | CC(=O)OC(OC(=O)N1CC(c2ccc(O)c(N3CC(=O)NS3(=O)=O)c2F)=C[C@H]1CCC1CCC1)C(C)C (stereo partly drawn) [Compound 157, 1-acetoxy-2-methylpropyl (2R)-2-(2-cyclobutylethyl)-4-(3-(1,1-dioxido-4-oxo-1,2,5-thiadiazolidin-2-yl)-2-fluoro-4-hydroxyphenyl)-2,5-dihydro-1H-pyrrole-1-carboxylate] | ≤ 1000 | ≤ 1000
16 | CC(OC(=O)[C@@H](N)C(C)C)OC(=O)N1CC(c2ccc(O)c(N3CC(=O)NS3(=O)=O)c2F)=C[C@H]1CCC1CCC1 (stereo partly drawn) [Compound 158, 1-((L-valyl)oxy)ethyl (2R)-2-(2-cyclobutylethyl)-4-(3-(1,1-dioxido-4-oxo-1,2,5-thiadiazolidin-2-yl)-2-fluoro-4-hydroxyphenyl)-2,5-dihydro-1H-pyrrole-1-carboxylate] | ≤ 1000 | ≤ 1000
